Results: PubChem BioAssay (NCI)
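Tested at 5 concentrations; 48 h exposure; 96-well plates; endpoints linearly interpolated, else capped at highest concentration. At the GI50, growth is halved. At the TGI there is no net growth.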

Columns and labels:
Assay in all cases: NCI anticancer screen, dose series, 48 h
IGROV1 ovarian = test system: IGROV1 ovarian
SK-OV-3 ovarian = test system: SK-OV-3 ovarian
SK-MEL-5 melanoma = test system: SK-MEL-5 melanoma
DU-145 prostate = test system: DU-145 prostate
786-0 renal = test system: 786-0 renal
NCI/ADR-RES ovarian = test system: NCI/ADR-RES ovarian
OVCAR-8 ovarian = test system: OVCAR-8 ovarian
HCC-2998 colon = test system: HCC-2998 colon
RXF 393 renal = test system: RXF 393 renal
HT29 colon = test system: HT29 colon
ACHN renal = test system: ACHN renal
PC-3 prostate = test system: PC-3 prostate
SW-620 colon = test system: SW-620 colon
RPMI-8226 leukemia = test system: RPMI-8226 leukemia
HOP-92 NSCLC = test system: HOP-92 NSCLC
MOLT-4 leukemia = test system: MOLT-4 leukemia
HCT-116 colon = test system: HCT-116 colon
OVCAR-4 ovarian = test system: OVCAR-4 ovarian
SNB-75 CNS = test system: SNB-75 CNS
OVCAR-3 ovarian = test system: OVCAR-3 ovarian
SF-268 CNS = test system: SF-268 CNS
A498 renal = test system: A498 renal
MCF7 breast = test system: MCF7 breast
NCI-H460 lung = test system: NCI-H460 lung
SK-MEL-2 melanoma = test system: SK-MEL-2 melanoma
HS 578T breast = test system: HS 578T breast
SR leukemia = test system: SR leukemia
CCRF-CEM leukemia = test system: CCRF-CEM leukemia
A549 NSCLC = test system: A549 NSCLC
TK-10 renal = test system: TK-10 renal
SNB-19 CNS = test system: SNB-19 CNS
OVCAR-5 ovarian = test system: OVCAR-5 ovarian
U251 CNS = test system: U251 CNS
SK-MEL-28 melanoma = test system: SK-MEL-28 melanoma
COLO 205 colon = test system: COLO 205 colon
NCI-H23 lung = test system: NCI-H23 lung
KM12 colon = test system: KM12 colon
EKVX NSCLC = test system: EKVX NSCLC
M14 melanoma = test system: M14 melanoma
HCT-15 colon = test system: HCT-15 colon
SN12C renal = test system: SN12C renal
UO-31 renal = test system: UO-31 renal
NCI-H522 lung = test system: NCI-H522 lung
HOP-62 NSCLC = test system: HOP-62 NSCLC
UACC-257 melanoma = test system: UACC-257 melanoma
NCI-H226 lung = test system: NCI-H226 lung
SF-539 CNS = test system: SF-539 CNS
UACC-62 melanoma = test system: UACC-62 melanoma
MDA-MB-435 = test system: MDA-MB-435
MDA-MB-231 breast = test system: MDA-MB-231 breast
HL-60(TB) leukemia = test system: HL-60(TB) leukemia
BT-549 breast = test system: BT-549 breast
K-562 leukemia = test system: K-562 leukemia
T-47D breast = test system: T-47D breast
SF-295 CNS = test system: SF-295 CNS
LOX IMVI melanoma = test system: LOX IMVI melanoma
MALME-3M melanoma = test system: MALME-3M melanoma
CAKI-1 renal = test system: CAKI-1 renal

SMILES: Cc1cccc(NC(=O)CC(=O)N2N=C(N3c4ccccc4Sc4ccccc43)CC2c2ccccc2)c1 (stereo unspecified)
- TGI (IGROV1 ovarian): > 100 µM
- TGI (SK-OV-3 ovarian): > 100 µM
- TGI (SK-MEL-5 melanoma): > 100 µM
- TGI (DU-145 prostate): > 100 µM
- TGI (786-0 renal): > 100 µM
- TGI (NCI/ADR-RES ovarian): > 100 µM
- TGI (OVCAR-8 ovarian): > 100 µM
- TGI (HCC-2998 colon): > 100 µM
- TGI (RXF 393 renal): > 100 µM
- TGI (HT29 colon): > 100 µM
- TGI (ACHN renal): > 100 µM
- TGI (PC-3 prostate): > 100 µM
- TGI (SW-620 colon): > 100 µM
- TGI (RPMI-8226 leukemia): > 100 µM
- TGI (HOP-92 NSCLC): > 100 µM
- TGI (MOLT-4 leukemia): > 100 µM
- TGI (HCT-116 colon): > 100 µM
- TGI (OVCAR-4 ovarian): > 100 µM
- TGI (SNB-75 CNS): > 100 µM
- TGI (OVCAR-3 ovarian): > 100 µM
- TGI (SF-268 CNS): > 100 µM
- TGI (A498 renal): > 100 µM
- TGI (MCF7 breast): > 100 µM
- TGI (NCI-H460 lung): > 100 µM
- TGI (SK-MEL-2 melanoma): > 100 µM
- TGI (HS 578T breast): > 100 µM
- TGI (SR leukemia): > 100 µM
- TGI (CCRF-CEM leukemia): > 100 µM
- TGI (A549 NSCLC): > 100 µM
- TGI (TK-10 renal): > 100 µM
- TGI (SNB-19 CNS): > 100 µM
- TGI (OVCAR-5 ovarian): > 100 µM
- TGI (U251 CNS): > 100 µM
- TGI (SK-MEL-28 melanoma): > 100 µM
- TGI (COLO 205 colon): > 100 µM
- TGI (NCI-H23 lung): > 100 µM
- TGI (KM12 colon): > 100 µM
- TGI (EKVX NSCLC): > 100 µM
- TGI (M14 melanoma): > 100 µM
- TGI (HCT-15 colon): > 100 µM
- TGI (SN12C renal): > 100 µM
- TGI (UO-31 renal): > 100 µM
- TGI (NCI-H522 lung): > 100 µM
- TGI (HOP-62 NSCLC): > 100 µM
- TGI (UACC-257 melanoma): > 100 µM
- TGI (NCI-H226 lung): > 100 µM
- TGI (SF-539 CNS): > 100 µM
- TGI (UACC-62 melanoma): > 100 µM
- TGI (MDA-MB-435): > 100 µM
- TGI (MDA-MB-231 breast): > 100 µM
- TGI (HL-60(TB) leukemia): > 100 µM
- TGI (BT-549 breast): > 100 µM
- TGI (K-562 leukemia): > 100 µM
- TGI (T-47D breast): > 100 µM
- TGI (SF-295 CNS): > 100 µM

SMILES: CC1(C)N=C(N)N=C(N)N1c1ccc(OCC(=O)Nc2cccc(S(=O)(=O)F)c2)c(Cl)c1
- TGI (IGROV1 ovarian): > 100 µM
- TGI (SK-OV-3 ovarian): > 100 µM
- TGI (SK-MEL-5 melanoma): > 91.9 µM
- TGI (DU-145 prostate): > 100 µM
- TGI (786-0 renal): > 42.5 µM
- TGI (NCI/ADR-RES ovarian): > 100 µM
- TGI (OVCAR-8 ovarian): > 100 µM
- TGI (HCC-2998 colon): > 100 µM
- TGI (RXF 393 renal): > 100 µM
- TGI (HT29 colon): > 100 µM
- TGI (ACHN renal): > 100 µM
- TGI (PC-3 prostate): > 76.6 µM
- TGI (LOX IMVI melanoma): > 100 µM
- TGI (SW-620 colon): > 100 µM
- TGI (RPMI-8226 leukemia): > 100 µM
- TGI (HOP-92 NSCLC): > 100 µM
- TGI (MOLT-4 leukemia): > 100 µM
- TGI (MALME-3M melanoma): > 19.9 µM
- TGI (HCT-116 colon): > 100 µM
- TGI (OVCAR-4 ovarian): > 100 µM
- TGI (SNB-75 CNS): > 100 µM
- TGI (OVCAR-3 ovarian): > 76.8 µM
- TGI (SF-268 CNS): > 41.3 µM
- TGI (MCF7 breast): > 43.5 µM
- TGI (NCI-H460 lung): > 100 µM
- TGI (SK-MEL-2 melanoma): > 100 µM
- TGI (HS 578T breast): > 100 µM
- TGI (SR leukemia): > 100 µM
- TGI (CCRF-CEM leukemia): > 100 µM
- TGI (A549 NSCLC): > 100 µM
- TGI (TK-10 renal): > 44.4 µM
- TGI (SNB-19 CNS): > 100 µM
- TGI (OVCAR-5 ovarian): > 100 µM
- TGI (U251 CNS): > 100 µM
- TGI (SK-MEL-28 melanoma): > 100 µM
- TGI (CAKI-1 renal): > 100 µM
- TGI (COLO 205 colon): > 100 µM
- TGI (NCI-H23 lung): > 45.4 µM
- TGI (KM12 colon): > 95 µM
- TGI (M14 melanoma): > 100 µM
- TGI (HCT-15 colon): > 100 µM
- TGI (SN12C renal): > 100 µM
- TGI (UO-31 renal): > 100 µM
- TGI (NCI-H522 lung): > 100 µM
- TGI (HOP-62 NSCLC): > 79.7 µM
- TGI (UACC-257 melanoma): > 14.2 µM
- TGI (NCI-H226 lung): 77.2 µM
- TGI (SF-539 CNS): > 100 µM
- TGI (MDA-MB-435): > 100 µM
- TGI (MDA-MB-231 breast): > 100 µM
- TGI (HL-60(TB) leukemia): > 100 µM
- GI50 (BT-549 breast): > 100 µM
- TGI (BT-549 breast): > 100 µM
- TGI (K-562 leukemia): > 100 µM
- TGI (T-47D breast): > 100 µM
- TGI (SF-295 CNS): > 73.5 µM
